Values after ≈ are worked out from the molar mass of the structure shown.
Key:
[1] = for Solubility Water / Solubility pH 1 / Solubility pH 4.5 / Solubility pH 6.8: 24 h
Method: (§1) In an initial procedure (performed in triplicate), the salts were added in small aliquots to deionised water or to buffer solutions (10 mL) until saturation was achieved (˜20 mg was initially added), and the resulting slurry was shaken at 37° C. for 24 h. The following buffers (50 mM in each case) were used: • pH 1 25 mL KCl solution (1.49 g dissolved in 100 mL water) and 42.5 mL HCl solution (1.66 mL of concentrated HCl (˜37%) made up to 100 mL with water) were added together and made up to 100 mL with water; • pH 4.5 anhydrous sodium acetate (1.07 g) was dissolved in water (about 150 mL) before adding 5.9 mL acetic acid solution (11.6 mL glacial acetic acid made up to 100 mL with water). The resulting solution was made up to 500 mL with water; and • pH 6.8 25 mL of KH2PO4 solution (2.72 g dissolved in about 80 mL water and made up to 100 mL with water) and 11.2 mL of NaOH solution (800 mg of sodium hydroxide was dissolved and diluted to 100 mL with water) were added together and made up to 100 mL with water.
(§2) Any solids which were isolated by filtration were assessed by XRPD to determine whether the form of the material had changed.
(§3) The solubility assessment of these samples was repeated using the following procedure (samples prepared in triplicate):
(§4) The appropriate salt (30 mg) was weighed into a vial and water or buffer solution (1 mL) was added. The samples were shaken at 37° C. for 24 h. After 1 h and after about 17 h, further salt was added to the mandelate samples (except those in pH 1 buffer solution) to give an approximate 50-60 mg of solids. […] The samples were analysed as described above.

[2] = Hygroscopicity by gravimetric (GVS) or dynamic (DVS) vapour sorption; format: physicochemical; conditions: for % Mass increase: at 90% RH, 25° C., GVS (camphorates, camsylate), DVS (mandelate); for Hygroscopicity (in words): from % mass increase at 90% RH
Method: Typically, approximately 10-20 mg of sample was placed into a mesh vapour sorption balance pan and loaded into an IGASorp Moisture Sorption Analyser balance by Hiden Analytical. The sample was subjected to a ramping profile from 40-90% relative humidity (RH) at 10% increments, maintaining the sample at each step until a stable weight had been achieved (98% step completion, minimum step length 30 minutes, maximum step length 60 minutes) at 25° C. After completion of the sorption cycle, the sample was dried using the same procedure to 0% RH, and finally taken back to the starting point of 40% RH. Two cycles were performed. The weight change during the sorption/desorption cycles were plotted, allowing for the hygroscopic nature of the sample to be determined.
Typically, approximately 10 mg of sample was placed into a mesh vapor sorption balance pan and loaded into a DVS-1/DVS Intrinsic/DVS Advantage dynamic vapor sorption balance by Surface Measurement Systems. The sample was subjected to a ramping profile from 40-90% relative humidity (RH) at 10% increments, maintaining the sample at each step until a stable weight had been achieved (dm/dt 0.004%, minimum step length 30 min, maximum step length 500 min) at 25° C. After completion of the sorption cycle, the sample was dried using the same procedure to 0% RH and then a second sorption cycle back to 40% RH. Two cycles were performed. The weight change during the sorption/desorption cycles were plotted, allowing for the hygroscopic nature of the sample to be determined.
GVS was performed on the crystalline solids produced in Examples land 3. DVS was performed on the crystalline solids produced in Example 2. Table 6 below summarizes the % mass increase observed at 90% RH for the samples.

physchem = conditions: 37 °C, thermodynamic from solid
Method: as §1, §2, §3, §4

[3] = drug substance; cited from earlier work
PARP activity = conditions: read-out: inhibition of PARP activity EC50; whole cell assay; cited from earlier work
[4] = system: cancer cells having mutant BRCA1 and BRCA2; conditions: read-out: inhibition of proliferation CC50; cited from earlier work

Solubility Water [1]	Solubility pH 1 [1]	Solubility pH 4.5 [1]	Solubility pH 6.8 [1]	% Mass increase [2]	Hygroscopicity (in words) [2]	Molecule	also measured
45.4 mg/mL (≈ 142 mM)	163.1 mg/mL	53.8 mg/mL	7.8 mg/mL	~0.07%	not hygroscopic	NC(=O)c1cccc2cn(-c3ccc(C4CCCNC4)cc3)nc12 [Mandelate, 2-{4-[(3S)-piperidin-3-yl]phenyl}-2H-indazole-7-carboxamide (niraparib) (R)-(−)-mandelate]	–
–	–	–	–	~0.2%	–	NC(=O)c1cccc2cn(-c3ccc(C4CCCNC4)cc3)nc12 [(−)-Camphorate, 2-{4-[(3S)-piperidin-3-yl]phenyl}-2H-indazole-7-carboxamide (niraparib) (1S,3R)-(−)-camphorate]	–

Continued, molecule first:

Molecule	Solubility Water [1]	Solubility pH 1 [1]	Solubility pH 4.5 [1]	Solubility pH 6.8 [1]	% Mass increase [2]	Hygroscopicity (in words) [2]	also measured
NC(=O)c1cccc2cn(-c3ccc(C4CCCNC4)cc3)nc12 [Camsylate, 2-{4-[(3S)-piperidin-3-yl]phenyl}-2H-indazole-7-carboxamide (niraparib) (1S)-(+)-camsylate]	5.9 mg/mL (≈ 18.4 mM)	11.5 mg/mL	7.1 mg/mL	1.7 mg/mL	~1.3%	slightly hygroscopic	–
NC(=O)c1cccc2cn(-c3ccc([C@@H]4CCCNC4)cc3)nc12 [Tosylate, 2-{4-[(3S)-piperidin-3-yl]phenyl}-2H-indazole-7-carboxamide 4-methylbenzenesulfonate hydrate 1:1:1]	–	–	–	–	–	–	solubility at 24 h (physchem; pH 1, simulated gastric fluid, Solubility pH 1): 900 µg/mL; solubility at 24 h (physchem; pH 6.8, aqueous buffer, Solubility pH 6.8): 900 µg/mL; solubility at 24 h (physchem; water, Solubility Water): 500 µg/mL; Aqueous solubility (background statement) [3]: low aqueous solubility; Hygroscopicity (background statement) [3]: non-hygroscopic
NC(=O)c1cccc2cn(-c3ccc(C4CCCNC4)cc3)nc12 [(+)-Camphorate, 2-{4-[(3S)-piperidin-3-yl]phenyl}-2H-indazole-7-carboxamide (niraparib) (1R,3S)-(+)-camphorate]	0.2 mg/mL (≈ 0.624 mM)	21.4 mg/mL	0.3 mg/mL	1.2 mg/mL	~0.3%	–	–
NC(=O)c1cccc2cn(-c3ccc([C@@H]4CCCNC4)cc3)nc12 [Niraparib, 2-{4-[(3S)-piperidin-3-yl]phenyl}-2H-indazole-7-carboxamide]	–	–	–	–	–	–	EC50 (PARP activity): 4 nM; CC50 [4]: 10 to 100 nM
camphorate	–	–	–	–	–	not hygroscopic	Solubility (in words, reading of Table 8) ([1]; comparison with tosylate salt, especially in low pH media): greater solubility than the tosylate salt
